# Measurements: PubChem BioAssay (NCI)
#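 Five concentrations, 48 hours, 96-well plates. The concentration for full growth arrest is given as TGI.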
# Experiments:
# Assay in all cases: inhibition of tumour cell growth, NCI panel, 48 h
# HOP-92 NSCLC = test system: HOP-92 NSCLC
# PC-3 prostate = test system: PC-3 prostate
# HL-60(TB) leukemia = test system: HL-60(TB) leukemia
# HCT-15 colon = test system: HCT-15 colon
# TK-10 renal = test system: TK-10 renal
# OVCAR-3 ovarian = test system: OVCAR-3 ovarian
# RXF 393 renal = test system: RXF 393 renal
# 786-0 renal = test system: 786-0 renal
# MDA-N = test system: MDA-N
# MOLT-4 leukemia = test system: MOLT-4 leukemia
# ACHN renal = test system: ACHN renal
# SW-620 colon = test system: SW-620 colon
# LOX IMVI melanoma = test system: LOX IMVI melanoma
# NCI-H23 lung = test system: NCI-H23 lung
# NCI-H226 lung = test system: NCI-H226 lung
# MDA-MB-435 = test system: MDA-MB-435
# IGROV1 ovarian = test system: IGROV1 ovarian
# NCI-H522 lung = test system: NCI-H522 lung
# OVCAR-8 ovarian = test system: OVCAR-8 ovarian
# SN12C renal = test system: SN12C renal
# HCT-116 colon = test system: HCT-116 colon
# DU-145 prostate = test system: DU-145 prostate
# SK-MEL-5 melanoma = test system: SK-MEL-5 melanoma
# M14 melanoma = test system: M14 melanoma
# NCI/ADR-RES ovarian = test system: NCI/ADR-RES ovarian
# MDA-MB-231 breast = test system: MDA-MB-231 breast
# HCC-2998 colon = test system: HCC-2998 colon
# CAKI-1 renal = test system: CAKI-1 renal
# COLO 205 colon = test system: COLO 205 colon
# SK-OV-3 ovarian = test system: SK-OV-3 ovarian
# NCI-H460 lung = test system: NCI-H460 lung
# SF-295 CNS = test system: SF-295 CNS
# KM12 colon = test system: KM12 colon
# MCF7 breast = test system: MCF7 breast
# HT29 colon = test system: HT29 colon
# RPMI-8226 leukemia = test system: RPMI-8226 leukemia
# SR leukemia = test system: SR leukemia
# EKVX NSCLC = test system: EKVX NSCLC
# SNB-75 CNS = test system: SNB-75 CNS
# UACC-257 melanoma = test system: UACC-257 melanoma
# A549 NSCLC = test system: A549 NSCLC
# HOP-62 NSCLC = test system: HOP-62 NSCLC
# U251 CNS = test system: U251 CNS
# SNB-19 CNS = test system: SNB-19 CNS
# SF-268 CNS = test system: SF-268 CNS
# SF-539 CNS = test system: SF-539 CNS
# CCRF-CEM leukemia = test system: CCRF-CEM leukemia
# A498 renal = test system: A498 renal
# OVCAR-4 ovarian = test system: OVCAR-4 ovarian
# K-562 leukemia = test system: K-562 leukemia
# T-47D breast = test system: T-47D breast
# SK-MEL-2 melanoma = test system: SK-MEL-2 melanoma
# SK-MEL-28 melanoma = test system: SK-MEL-28 melanoma
# HS 578T breast = test system: HS 578T breast
# UO-31 renal = test system: UO-31 renal
# UACC-62 melanoma = test system: UACC-62 melanoma
# MALME-3M melanoma = test system: MALME-3M melanoma
# BT-549 breast = test system: BT-549 breast
# OVCAR-5 ovarian = test system: OVCAR-5 ovarian
structure (smiles),measurement,setting,value
NC(=S)N/N=C\CC(O)(C(F)(F)F)C(F)(F)F,TGI,HOP-92 NSCLC,> 10 µM
same,TGI,PC-3 prostate,> 10 µM
same,TGI,HL-60(TB) leukemia,> 10 µM
same,TGI,HCT-15 colon,> 10 µM
same,TGI,TK-10 renal,> 10 µM
same,TGI,OVCAR-3 ovarian,> 10 µM
same,TGI,RXF 393 renal,> 10 µM
same,TGI,786-0 renal,> 10 µM
same,TGI,MDA-N,> 10 µM
same,TGI,MOLT-4 leukemia,> 10 µM
same,TGI,ACHN renal,> 10 µM
same,TGI,SW-620 colon,> 10 µM
same,TGI,LOX IMVI melanoma,> 10 µM
same,TGI,NCI-H23 lung,> 10 µM
same,TGI,NCI-H226 lung,> 10 µM
same,TGI,MDA-MB-435,> 10 µM
same,TGI,IGROV1 ovarian,> 10 µM
same,TGI,NCI-H522 lung,> 10 µM
same,TGI,OVCAR-8 ovarian,> 10 µM
same,TGI,SN12C renal,> 10 µM
same,TGI,HCT-116 colon,> 10 µM
same,TGI,DU-145 prostate,> 10 µM
same,TGI,SK-MEL-5 melanoma,> 10 µM
same,TGI,M14 melanoma,> 10 µM
same,TGI,NCI/ADR-RES ovarian,> 10 µM
same,TGI,MDA-MB-231 breast,> 10 µM
same,TGI,HCC-2998 colon,> 10 µM
same,TGI,CAKI-1 renal,> 10 µM
same,TGI,COLO 205 colon,> 10 µM
same,TGI,SK-OV-3 ovarian,> 10 µM
same,TGI,NCI-H460 lung,> 10 µM
same,TGI,SF-295 CNS,> 10 µM
same,TGI,KM12 colon,> 10 µM
same,TGI,MCF7 breast,> 10 µM
same,TGI,HT29 colon,> 10 µM
same,TGI,RPMI-8226 leukemia,> 10 µM
same,TGI,SR leukemia,> 10 µM
same,TGI,EKVX NSCLC,> 10 µM
same,TGI,SNB-75 CNS,> 10 µM
same,TGI,UACC-257 melanoma,> 10 µM
same,TGI,A549 NSCLC,> 10 µM
same,TGI,HOP-62 NSCLC,> 10 µM
same,TGI,U251 CNS,> 10 µM
same,TGI,SNB-19 CNS,> 10 µM
same,TGI,SF-268 CNS,> 10 µM
same,TGI,SF-539 CNS,> 10 µM
same,TGI,CCRF-CEM leukemia,> 10 µM
same,TGI,A498 renal,> 10 µM
same,TGI,OVCAR-4 ovarian,> 10 µM
same,TGI,K-562 leukemia,> 10 µM
same,TGI,T-47D breast,> 10 µM
same,TGI,SK-MEL-2 melanoma,> 10 µM
same,TGI,SK-MEL-28 melanoma,> 10 µM
same,TGI,HS 578T breast,> 10 µM
same,TGI,UO-31 renal,> 10 µM
same,TGI,UACC-62 melanoma,> 10 µM
same,TGI,MALME-3M melanoma,> 10 µM
CCCC(=O)Nc1cc(/C=C/C(=O)N2CC(CCl)c3ccc(N)cc32)n(C)c1 (centres undefined),TGI,PC-3 prostate,> 100 µM
same,TGI,HCT-15 colon,> 100 µM
same,TGI,BT-549 breast,0.813 µM
same,TGI,TK-10 renal,0.471 µM
same,TGI,OVCAR-3 ovarian,> 100 µM
same,TGI,786-0 renal,2.92 µM
same,TGI,MDA-N,0.675 µM
same,TGI,SW-620 colon,> 100 µM
same,TGI,LOX IMVI melanoma,> 100 µM
same,TGI,NCI-H23 lung,0.809 µM
same,TGI,NCI-H226 lung,> 100 µM
same,TGI,NCI-H522 lung,0.0834 µM
same,TGI,SN12C renal,6.62 µM
same,TGI,HCT-116 colon,14.1 µM
same,TGI,OVCAR-5 ovarian,> 100 µM
same,TGI,DU-145 prostate,2.77 µM
same,TGI,M14 melanoma,> 100 µM
same,TGI,HCC-2998 colon,0.34 µM
same,TGI,CAKI-1 renal,0.385 µM
same,TGI,COLO 205 colon,0.3 µM
same,TGI,SK-OV-3 ovarian,> 100 µM
same,TGI,NCI-H460 lung,0.796 µM
same,TGI,HT29 colon,> 100 µM
same,TGI,SR leukemia,0.594 µM
same,TGI,A549 NSCLC,> 100 µM
same,TGI,HOP-62 NSCLC,> 100 µM
same,TGI,U251 CNS,> 40.9 µM
same,TGI,SNB-19 CNS,> 43.2 µM
same,TGI,SF-268 CNS,> 100 µM
same,TGI,SF-539 CNS,0.429 µM
same,TGI,A498 renal,0.0523 µM
same,TGI,OVCAR-4 ovarian,0.697 µM
same,TGI,K-562 leukemia,> 100 µM
same,TGI,T-47D breast,0.601 µM
same,TGI,SK-MEL-2 melanoma,0.572 µM
same,TGI,UACC-62 melanoma,0.304 µM
same,TGI,MALME-3M melanoma,0.507 µM
